The values below come from PMC4097363, “Trace amines inhibit insect odorant receptor function through antagonism of the co-receptor subunit” (F1000Research, 2014).

Entries after “also recorded” stand apart in the source; their conditions may differ.

What all share (test): Inhibition of odorant activation of heteromeric OR in Xenopus oocytes
One experiment addresses Agam\Orco+Agam\Or65 (Anopheles gambiae, UniProt Q7QCC7). It is filed as cell-based. Particulars: for inhibition of odorant activation of the OR: activated by 100nM eugenol, 10µM tryptamine or 100µM tyramine; for IC50: IC 50 for inhibition of responses to eugenol. As for the experimental part:
(§1) Follicle cells were removed by treatment with collagenase B (Boehringer Mannheim) for 2 hours at room temperature. Capped cRNA encoding each OR subunit was generated using mMessage mMachine kits (Ambion). For heteromeric ORs, 25 ng of cRNA encoding each OR subunit was injected into Stage V-VI Xenopus oocytes. For expression of Orco homomers, 50 ng of cRNA was injected. Oocytes were incubated at 18°C in Barth's saline (in mM: 88 NaCl, 1 KCl, 2.4 NaHCO 3, 0.3 CaNO 3, 0.41 CaCl 2, 0.82 MgSO 4, 15 HEPES, pH 7.6, and 150µg/ml ceftazidime) for 2–5 days prior to electrophysiological recording.
(§2) Odorant and Orco ligand induced currents were recorded under two-electrode voltage clamp, using an automated parallel electrophysiology system (OpusExpress 6000A, Molecular Devices). Oocytes were perfused with ND96 (in mM: 96 NaCl, 2 KCl, 1 CaCl 2, 1 MgCl 2, 5 HEPES, pH 7.5). Orco ligands were prepared as 50 or 100 mM stock solutions in DMSO and then diluted into ND96 on the day of the experiment. Odorants were prepared as 100 mM stock solutions in DMSO and then diluted into ND96. Unless otherwise noted, applications were for 60 sec at a flow rate of 1.0 ml/min, with extensive washing in ND96 at 4.6 ml/min between applications. Micropipettes were filled with 3 M KCl and had resistances of 0.2–2.0 MΩ. The holding potential was -70 mV. Current responses, filtered (4-pole, Bessel, low pass) at 20 Hz (-3 db) and sampled at 100 Hz, were captured and stored using OpusXpress 1.1 software (Molecular Devices).
(§3) To measure inhibition of odorant activation of heteromeric ORs ( Figures 4B, 4C, Figure 5B and Figure 6), oocytes were exposed to a 30 sec application of odorant followed by a 10 min wash. Oocytes were then exposed to a 90 sec application of tryptamine or tyramine, immediately followed by a 30 sec co-application of tryptamine or tyramine and odorant. The current response in the presence of antagonist candidate was compared to the preceding response to odorant alone and expressed as a percentage. […] For this reason, we then re-normalized antagonism data to the value obtained when the assay was run in the absence of antagonist candidate (sham). In the “sham” assay, oocytes were exposed to a 30 sec application of odorant followed by a 10 min wash and then exposed to a 90 sec application of ND96 (no antagonist candidate), immediately followed by a 30 sec application of odorant. The second odorant response was compared to the first response and expressed as a percentage. In Figure 4B, 4C, Figure 5B and Figure 6, the sham value for 100nM eugenol was 57 ± 3% (mean ± SEM, n = 3). In Figure 5B, the sham value for 10nM eugenol was 93 ± 4% (n = 4). In Figure 4B and C, the sham value for 1µM Z11-14:OAc was 82 ± 6% (n = 6) and the sham value for 150µM 2-phenylethanol was 92 ± 2% (n = 3). In Figure 6, the sham value for 3µM L-fenchone was 83 ± 1% (n = 3), the sham value for 40µM acetophenone was 92 ± 1% (n = 3), the sham value for 70µM geranyl acetate was 97 ± 1% (n = 3), the sham value for 10µM 6-methyl-5-hepten-2-one was 94 ± 2% (n = 3) and the sham value for 3µM 2-nonanone was 81 ± 1% (n = 3).
Initial analysis of electrophysiological data was done using Clampfit 9.1 software (Molecular Devices). Curve fitting and statistical analyses were done using Prism 5 (Graphpad). […]

In another experiment the test system is Agam\Orco+Agam\Or31. It is filed as cell-based, Anopheles gambiae. Particulars: activated by 70µM geranyl acetate; 10µM tryptamine or 100µM tyramine. As for the experimental part:
as §1, §2, §3

The test system of another experiment is Agam\Orco+Agam\Or28. It is filed as cell-based, Anopheles gambiae. As to conditions: activated by 40µM acetophenone; 10µM tryptamine or 100µM tyramine. As for the experimental part: as §1, §2, §3
The next experiment concerns Agam\Orco+Agam\Or27. It is filed as cell-based, Anopheles gambiae. As to conditions: activated by 3µM L-fenchone; 10µM tryptamine or 100µM tyramine. As for the experimental part:
as §1, §2, §3

Another experiment concerns Agam\Orco+Agam\Or39. It is filed as cell-based, Anopheles gambiae. As to conditions: activated by 10µM 6-methyl-5-hepten-2-one; 10µM tryptamine or 100µM tyramine. As for the experimental part:
as §1, §2, §3

In the next experiment the test system is Mcar\Orco+Mcar\Or5. The experiment is classed as cell-based, Megacyllene caryae. As to conditions: activated by 150µM 2-phenylethanol; 10µM tryptamine or 100µM tyramine. The method, then:
as §1
as §2, with “Current responses, filtered (4-pole, Bessel, low pass) at 20 Hz (-3 db) and sampled at 100 Hz, were captured and stored using OpusXpress 1.1 software (Molecular Devices).” left out

Sequence of Agam\Orco+Agam\Or65 (Q7QCC7 whole entry): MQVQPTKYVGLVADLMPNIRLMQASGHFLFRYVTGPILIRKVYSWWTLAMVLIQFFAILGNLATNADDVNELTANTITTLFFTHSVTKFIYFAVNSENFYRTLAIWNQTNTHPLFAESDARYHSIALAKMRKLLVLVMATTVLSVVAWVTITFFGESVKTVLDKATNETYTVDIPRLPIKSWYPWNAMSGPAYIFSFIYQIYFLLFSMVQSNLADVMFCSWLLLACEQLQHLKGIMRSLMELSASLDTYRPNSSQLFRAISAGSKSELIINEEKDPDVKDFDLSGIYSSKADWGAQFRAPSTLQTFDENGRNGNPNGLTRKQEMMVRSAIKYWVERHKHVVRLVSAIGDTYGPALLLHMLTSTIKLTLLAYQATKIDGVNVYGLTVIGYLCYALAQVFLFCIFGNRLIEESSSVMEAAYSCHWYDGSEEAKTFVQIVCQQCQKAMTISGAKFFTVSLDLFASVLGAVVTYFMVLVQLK

For the compound `NCCc1ccc(O)cc1` [tyramine], the “inhibition of odorant activation of the OR” value against Agam\Orco+Agam\Or65 is on record as “able to reduce odorant activation of these ORs, but was less effective than tryptamine; also recorded: able to inhibit odorant activation of each of these receptors, but was less effective than tryptamine”; with Agam\Orco+Agam\Or31, “able to inhibit odorant activation of each of these receptors, but was less effective than tryptamine”; in the experiment with Agam\Orco+Agam\Or28 it was “able to inhibit odorant activation of each of these receptors, but was less effective than tryptamine”; in the experiment on Agam\Orco+Agam\Or27, “able to inhibit odorant activation of each of these receptors, but was less effective than tryptamine”; in the experiment on Agam\Orco+Agam\Or39 it was “able to inhibit odorant activation of each of these receptors, but was less effective than tryptamine”; with Mcar\Orco+Mcar\Or5 it was “able to reduce odorant activation of these ORs, but was less effective than tryptamine”.
Take `NCCc1c[nH]c2ccccc12` [tryptamine]: the “mechanism of inhibition of odorant activation” value on Agam\Orco+Agam\Or65 (Agam\Orco+Agam\Or65, 10nM vs 100nM eugenol) is recorded as “non-competitively inhibits odorant activation”. For the same compound, the IC50 (as a rule, the concentration at which inhibition is half-maximal) was found to be 3.1 ± 0.4 µM on Agam\Orco+Agam\Or65 (Agam\Orco+Agam\Or65, 10nM eugenol) and 3.2 ± 0.3 µM at Agam\Orco+Agam\Or65 (Agam\Orco+Agam\Or65, 100nM eugenol). The “inhibition of odorant activation of the OR” value on Agam\Orco+Agam\Or65 is listed as “substantial inhibition of each receptor; also recorded: able to inhibit odorant activation of the receptor”; in the experiment on Agam\Orco+Agam\Or31, “able to inhibit odorant activation of the receptor”; in the experiment with Agam\Orco+Agam\Or28, “able to inhibit odorant activation of the receptor”; in the experiment with Agam\Orco+Agam\Or27, “able to inhibit odorant activation of the receptor”; in the experiment with Agam\Orco+Agam\Or39, “able to inhibit odorant activation of the receptor”; in the experiment on Mcar\Orco+Mcar\Or5 it was “substantial inhibition of each receptor”.
